Columns and labels:
human TRPA1 [1] = biological target: T1, human TRPA1 (Homo sapiens, UniProt O75762); test: FLIPR Tetra calcium influx assay, CHO cells expressing TRPA1, cinnamaldehyde agonist (hTRPA1 CHO Ca2+ AUC EVO); assay type: cell-based; conditions: CHO cells expressing human TRPA1; 75 uM cinnamaldehyde; Hill coefficient fixed to 1.5; read-out: hTRPA1 IC50 (hTRPA1 CHO Ca2+ AUC EVO (IC50))
T1 construct: expressed in transfected cells; host or cells: CHO cells
Protocol: The IC50 ([…]) of compounds on the human and rat TRPA1 channels were determined using a FLIPR Tetra instrument. CHO cells expressing TRPA1 were plated into 384-well plates, incubated overnight at 37° C., and loaded with BD calcium indicator dye for 1 hr at 37° C. followed by 15 minutes at room temperature. The assay buffer was Hank's Balanced Salt Solution (HBSS) containing 20 mM HEPES (pH readjusted to 7.4) along with 0.02% BSA.
Following dye load and plate cool down, compounds were added to the cells using FLIPR Tetra. Plates were then incubated with compounds for 20 minutes at room temperature prior to adding agonist. Following this incubation, about an EC80 concentration of cinnamaldehyde (75 uM for human TRPA1 and 45 uM for rat TRPA1) was added to active the channels and block of cinnamaldehyde induced calcium influx was measured.
The IC50 results were fit with a standard Hill function, keeping the Hill coefficient (n) fixed to 1.5. Fixing the Hill coefficient will generally reduce variability of the IC50 determination. The IC50 results were individually examined to make sure the MIN and MAX points were set correctly prior to validation of the results.

human TRPA1 [2] = biological target: T1, human TRPA1; test: Human Ca2+ MAX IC50 calcium assay; assay type: cell-based; conditions: for IC50: Table 5, read-out: H Ca2+ MAX (human CA2+ MAX IC50); for affinity on human TRPA1, in words: as compared to compounds 1 and 2
Description: Human Ca2+ MAX IC50 may be measured using one of the commercially available calcium assay kits provided by Molecular Devices, Abcam, Bio-Rad, Biovision, Enzo Lifesciences, Abnova, Sigma-Aldrich, or others.

[3] = Human liver microsome clearance / stability; assay type: in vitro ADME; conditions: for HLM clearance, in words: as compared to compounds 1 and 2; for HLM (human liver microsome stability): human liver microsomes, Table 5
Description: Human liver microsome clearance (mL/min/kg) may be measured according to the method described by Ackley et al, “Metabolic Stability Assessed by Liver Microsomes and Hepatocytes”, in “Optimization in Drug Discovery” in the “Methods in Pharmacology and Toxicology” series (ISSN 1557-2153), pp. 151-162 (Yan, Ed., Print ISBN 978-1-58829-332-9, Springer (2004), as well as by using commercially available assay kits by Cerep, Cyprotex, Bd Bioscience and others.
Human liver microsome HLM stability may be measured as using the procedure of Ackley et al. as described above.

T1 sequence (O75762 whole entry): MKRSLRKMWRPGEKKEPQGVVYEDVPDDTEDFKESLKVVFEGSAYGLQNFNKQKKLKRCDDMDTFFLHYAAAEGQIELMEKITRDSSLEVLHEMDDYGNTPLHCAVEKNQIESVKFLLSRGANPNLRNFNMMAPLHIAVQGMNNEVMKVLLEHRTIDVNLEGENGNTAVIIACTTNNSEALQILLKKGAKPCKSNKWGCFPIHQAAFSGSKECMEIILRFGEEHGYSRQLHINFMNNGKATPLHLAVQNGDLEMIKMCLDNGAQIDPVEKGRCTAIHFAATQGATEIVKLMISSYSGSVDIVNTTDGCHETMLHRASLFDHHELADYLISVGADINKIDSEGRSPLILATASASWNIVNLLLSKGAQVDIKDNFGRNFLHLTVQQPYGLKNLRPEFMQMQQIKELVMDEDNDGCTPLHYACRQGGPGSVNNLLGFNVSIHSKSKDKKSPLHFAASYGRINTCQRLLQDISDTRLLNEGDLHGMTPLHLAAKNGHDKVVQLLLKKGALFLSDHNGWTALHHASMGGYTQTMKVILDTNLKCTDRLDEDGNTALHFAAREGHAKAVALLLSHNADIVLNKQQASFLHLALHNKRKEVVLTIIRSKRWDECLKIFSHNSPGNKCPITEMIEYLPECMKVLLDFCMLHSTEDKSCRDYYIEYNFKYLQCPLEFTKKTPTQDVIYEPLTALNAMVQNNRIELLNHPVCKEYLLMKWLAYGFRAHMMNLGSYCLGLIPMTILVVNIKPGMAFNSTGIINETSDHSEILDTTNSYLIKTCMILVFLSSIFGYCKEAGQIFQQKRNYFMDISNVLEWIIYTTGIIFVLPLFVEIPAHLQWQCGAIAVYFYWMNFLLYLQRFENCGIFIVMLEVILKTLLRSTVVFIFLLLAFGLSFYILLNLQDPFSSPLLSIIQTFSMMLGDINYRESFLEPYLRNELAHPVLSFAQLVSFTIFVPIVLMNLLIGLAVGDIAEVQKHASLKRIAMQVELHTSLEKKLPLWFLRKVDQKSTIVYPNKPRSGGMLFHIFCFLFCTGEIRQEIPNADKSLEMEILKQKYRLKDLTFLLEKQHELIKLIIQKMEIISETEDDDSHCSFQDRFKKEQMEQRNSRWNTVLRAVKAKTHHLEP

| SMILES | IC50 (human TRPA1 [1]) | also measured |
| --- | --- | --- |
| C[C@H]1[C@H](F)C[C@@H](C(=O)NCc2cc(-c3cnc(C(F)(F)F)nc3)ncc2C(F)(F)F)N1S(=O)(=O)c1ccc(F)cn1 [[1], (2S,4R,5S)-4-fluoro-1-[(5-fluoro-2-pyridyl)sulfonyl]-5-methyl-N-[[5-(trifluoromethyl)-2-[2-(trifluoromethyl)pyrimidin-5-yl]-4-pyridyl]methyl]pyrrolidine-2-carboxamide] | 0.00269 µM |  |
| C[C@H]1[C@H](F)C[C@@H](C(=O)NCc2cc(-c3cnc(C(F)(F)F)nc3)ncc2C(F)(F)F)N1S(=O)(=O)c1cncc(F)c1 [Compound 3] |  | IC50 (human TRPA1 [2]): 0.021 µM; HLM clearance, in words [3]: relatively high HLM clearance; HLM (human liver microsome stability) [3]: 1.14 L/h/kg |
| C[C@H]1[C@H](F)C[C@@H](C(=O)NCc2cc(-c3cnc(C(F)(F)F)nc3)ncc2C(F)(F)F)N1S(=O)(=O)c1ccc(F)cn1 (single isomer, unassigned) [Compound 1] |  | IC50 (human TRPA1 [2]): 0.008 µM; HLM (human liver microsome stability) [3]: 0.246 L/h/kg |
| C[C@H]1[C@H](F)C[C@@H](C(=O)NCc2cc(-c3cnc(C(F)(F)F)nc3)ncc2C(F)(F)F)N1S(=O)(=O)c1ccc(C#N)cn1 [[8], (2S,4R,5S)-1-(5-cyanopyridin-2-ylsulfonyl)-4-fluoro-5-methyl-N-((5-(trifluoromethyl)-2-(2-(trifluoromethyl)pyrimidin-5-yl)pyridin-4-yl)methyl)pyrrolidine-2-carboxamide] | 0.0735 µM |  |
| C[C@H]1[C@H](F)C[C@@H](C(=O)NCc2cc(-c3cnc(C(F)(F)F)nc3)ncc2C(F)(F)F)N1S(=O)(=O)c1cncc(Cl)c1 [[3], (2S,4R,5S)-1-[(5-chloro-3-pyridyl)sulfonyl]-4-fluoro-5-methyl-N-[[5-(trifluoromethyl)-2-[2-(trifluoromethyl)pyrimidin-5-yl]-4-pyridyl]methyl]pyrrolidine-2-carboxamide] | 0.00309 µM |  |
| C[C@H]1[C@H](F)C[C@@H](C(=O)NCc2cc(-c3cnc(C(F)(F)F)nc3)ncc2C(F)(F)F)N1S(=O)(=O)c1cccnc1 [[2], (2S,4R,5S)-4-fluoro-5-methyl-1-(3-pyridylsulfonyl)-N-[[5-(trifluoromethyl)-2-[2-(trifluoromethyl)pyrimidin-5-yl]-4-pyridyl]methyl]pyrrolidine-2-carboxamide] | 0.032 µM |  |
| C[C@H]1[C@H](F)C[C@@H](C(=O)NCc2cc(-c3cnc(C(F)(F)F)nc3)ncc2OC(F)(F)F)N1S(=O)(=O)c1ccc(F)cn1 [[11], (2S,4R,5S)-4-fluoro-1-(5-fluoropyridin-2-ylsulfonyl)-5-methyl-N-((5-(trifluoromethoxy)-2-(2-(trifluoromethyl)pyrimidin-5-yl)pyridin-4-yl)methyl)pyrrolidine-2-carboxamide] | 0.00673 µM |  |
| C[C@H]1[C@H](F)C[C@@H](C(=O)NCc2cc(-c3cnc(C(F)(F)F)nc3)ncc2C(F)(F)F)N1S(=O)(=O)c1cc2cnccc2o1 [[5], (2S,4R,5S)-4-fluoro-1-furo[3,2-c]pyridin-2-ylsulfonyl-5-methyl-N-[[5-(trifluoromethyl)-2-[2-(trifluoromethyl)pyrimidin-5-yl]-4-pyridyl]methyl]pyrrolidine-2-carboxamide] | 0.00191 µM |  |
| C[C@H]1[C@H](F)C[C@@H](C(=O)NCc2cc(-c3cnc(C(F)(F)F)nc3)ccc2C#N)N1S(=O)(=O)c1ccc(F)cn1 [[10], (2S,4R,5S)—N-(2-cyano-5-(2-(trifluoromethyl)pyrimidin-5-yl)benzyl)-4-fluoro-1-(5-fluoropyridin-2-ylsulfonyl)-5-methylpyrrolidine-2-carboxamide] | 0.0669 µM |  |
| C[C@H]1[C@H](F)C[C@@H](C(=O)NCc2cc(-c3cnc(C(F)(F)F)nc3)ncc2C(F)(F)F)N1S(=O)(=O)c1cc2c(Cl)nccc2o1 [[4], (2S,4R,5S)-1-(4-chlorofuro[3,2-c]pyridin-2-yl)sulfonyl-4-fluoro-5-methyl-N-[[5-(trifluoromethyl)-2-[2-(trifluoromethyl)pyrimidin-5-yl]-4-pyridyl]methyl]pyrrolidine-2-carboxamide] | 0.000634 µM |  |
| C[C@H]1[C@H](F)C[C@@H](C(=O)NCc2cc(-c3cnc(C(F)(F)F)nc3)ncc2C(F)(F)F)N1S(=O)(=O)c1ccncc1 [Compound 6] |  | IC50 (human TRPA1 [2]): 0.638 µM; affinity on human TRPA1, in words (human TRPA1 [2]): low affinity; HLM clearance, in words [3]: relatively high HLM clearance; HLM (human liver microsome stability) [3]: 1.14 L/h/kg |
| C[C@H]1[C@H](F)C[C@@H](C(=O)NCc2cc(-c3cnc(C(F)(F)F)nc3)ncc2F)N1S(=O)(=O)c1ccc(F)cn1 [[12], (2S,4R,5S)-4-fluoro-N-((5-fluoro-2-(2-(trifluoromethyl)pyrimidin-5-yl)pyridin-4-yl)methyl)-1-(5-fluoropyridin-2-ylsulfonyl)-5-methylpyrrolidine-2-carboxamide] | 0.103 µM |  |
| C[C@H]1[C@H](F)C[C@@H](C(=O)NCc2cc(-c3cnc(C(F)(F)F)nc3)ncc2C(F)(F)F)N1S(=O)(=O)c1ccc(C#N)nc1 [Compound 4] |  | IC50 (human TRPA1 [2]): 0.041 µM; affinity on human TRPA1, in words (human TRPA1 [2]): low affinity; HLM (human liver microsome stability) [3]: 0.222 L/h/kg |
| C[C@H]1[C@H](F)C[C@@H](C(=O)NCc2cc(-c3cnc(C(F)(F)F)nc3)ncc2C(F)(F)F)N1S(=O)(=O)c1ccc(Cl)cn1 [Compound 2] |  | IC50 (human TRPA1 [2]): 0.006 µM; HLM (human liver microsome stability) [3]: 0.366 L/h/kg |
| C[C@H]1[C@H](F)C[C@@H](C(=O)NCc2cc(-c3cnc(C(F)(F)F)nc3)ncc2Cl)N1S(=O)(=O)c1ccc(F)cn1 [[9], (2S,4R,5S)—N-((5-chloro-2-(2-(trifluoromethyl)pyrimidin-5-yl)pyridin-4-yl)methyl)-4-fluoro-1-(5-fluoropyridin-2-ylsulfonyl)-5-methylpyrrolidine-2-carboxamide] | 0.0167 µM |  |
| C[C@H]1[C@H](F)C[C@@H](C(=O)NCc2cc(-c3cnc(C(F)(F)F)nc3)ncc2C(F)(F)F)N1S(=O)(=O)c1ncccc1F [[7], (2S,4R,5S)-4-fluoro-1-[(3-fluoro-2-pyridyl)sulfonyl]-5-methyl-N-[[5-(trifluoromethyl)-2-[2-(trifluoromethyl)pyrimidin-5-yl]-4-pyridyl]methyl]pyrrolidine-2-carboxamide] | 0.633 µM |  |
| C[C@H]1[C@H](F)C[C@@H](C(=O)NCc2cc(-c3cnc(C(F)(F)F)nc3)cnc2C(F)F)N1S(=O)(=O)c1ccc(F)cn1 [[14], (2S,4R,5S)—N-((2-(difluoromethyl)-5-(2-(trifluoromethyl)pyrimidin-5-yl)pyridin-3-yl)methyl)-4-fluoro-1-(5-fluoropyridin-2-ylsulfonyl)-5-methylpyrrolidine-2-carboxamide] | 0.0751 µM |  |
| C[C@H]1[C@H](F)C[C@@H](C(=O)NCc2cc(-c3cnc(C(F)(F)F)nc3)cnc2C(F)(F)F)N1S(=O)(=O)c1ccc(F)cn1 [[15], (2S,4R,5S)-4-fluoro-1-(5-fluoropyridin-2-ylsulfonyl)-5-methyl-N-((2-(trifluoromethyl)-5-(2-(trifluoromethyl)pyrimidin-5-yl)pyridin-3-yl)methyl)pyrrolidine-2-carboxamide] | 0.0477 µM |  |
| C[C@H]1[C@H](F)C[C@@H](C(=O)NCc2cc(-c3cnc(C(F)(F)F)nc3)ncc2C#N)N1S(=O)(=O)c1ccc(F)cn1 [[13], (2S,4R,5S)—N-((5-cyano-2-(2-(trifluoromethyl)pyrimidin-5-yl)pyridin-4-yl)methyl)-4-fluoro-1-(5-fluoropyridin-2-ylsulfonyl)-5-methylpyrrolidine-2-carboxamide] | 0.0898 µM |  |
| C[C@H]1[C@H](F)C[C@@H](C(=O)NCc2cc(-c3cnc(C(F)(F)F)nc3)ncc2C(F)(F)F)N1S(=O)(=O)c1ccc(Cl)cn1 [[6], (2S,4R,5S)-1-[(5-chloro-2-pyridyl)sulfonyl]-4-fluoro-5-methyl-N-[[5-(trifluoromethyl)-2-[2-(trifluoromethyl)pyrimidin-5-yl]-4-pyridyl]methyl]pyrrolidine-2-carboxamide] | 0.00216 µM |  |
